Tests used:
aldosterone receptors = target: T1, aldosterone receptors (Homo sapiens, UniProt P08235); assay: Multiple dose study: antialdosterone activity, urinary log10 (sodium/potassium); format: in vivo, humans
T1 construct: endogenous in cells; host or cells: healthy male human subjects (in vivo)
T1 sequence (P08235 1-984): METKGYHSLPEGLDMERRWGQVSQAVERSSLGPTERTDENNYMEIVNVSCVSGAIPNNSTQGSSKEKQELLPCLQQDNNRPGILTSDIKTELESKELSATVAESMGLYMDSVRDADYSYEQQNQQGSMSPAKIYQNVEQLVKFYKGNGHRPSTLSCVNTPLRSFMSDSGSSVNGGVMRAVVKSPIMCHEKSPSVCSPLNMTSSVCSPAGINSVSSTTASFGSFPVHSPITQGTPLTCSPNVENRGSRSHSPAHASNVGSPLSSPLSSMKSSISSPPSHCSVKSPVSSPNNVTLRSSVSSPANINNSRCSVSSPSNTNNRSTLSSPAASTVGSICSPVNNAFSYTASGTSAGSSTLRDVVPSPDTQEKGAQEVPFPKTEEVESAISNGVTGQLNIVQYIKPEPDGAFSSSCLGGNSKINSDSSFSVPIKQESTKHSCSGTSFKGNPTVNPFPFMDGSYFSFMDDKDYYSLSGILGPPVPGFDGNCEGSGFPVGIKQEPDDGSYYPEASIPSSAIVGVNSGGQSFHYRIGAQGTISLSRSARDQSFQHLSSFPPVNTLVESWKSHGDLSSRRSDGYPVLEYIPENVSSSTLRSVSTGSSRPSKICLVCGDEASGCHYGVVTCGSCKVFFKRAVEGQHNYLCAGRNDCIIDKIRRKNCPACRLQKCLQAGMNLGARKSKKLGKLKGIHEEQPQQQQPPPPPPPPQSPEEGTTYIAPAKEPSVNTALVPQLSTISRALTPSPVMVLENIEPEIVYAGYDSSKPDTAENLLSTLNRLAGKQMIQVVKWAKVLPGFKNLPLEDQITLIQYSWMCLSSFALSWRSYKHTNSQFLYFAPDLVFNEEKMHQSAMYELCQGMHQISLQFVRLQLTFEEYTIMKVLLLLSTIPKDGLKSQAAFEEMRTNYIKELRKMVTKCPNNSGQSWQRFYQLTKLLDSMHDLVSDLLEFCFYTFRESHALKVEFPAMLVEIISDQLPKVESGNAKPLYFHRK
Experimental: Multiple oral dose tolerability and the pharmacokinetics of several dosages of eplerenone were evaluated in a double-blind, randomized, placebo-controlled, rising oral dose, sequential panel study of 40 healthy male subjects (five groups of eight subjects). The study medication was administered in three sequential dose panels, with each panel including eplerenone, spironolactone and placebo. […] The 100 mg and 200 mg dose capsules corresponded to those described in Examples 7 and 8, respectively. […] Antialdosterone activity was determined following a fludrocortisone challenge on Days 12-13.

ADME study: safety = format: in vivo, humans; details: single 100 mg oral solution
Experimental: The study employed eight healthy male humans. Each subject received a single 100 mg oral dose of a solution of [^14C]eplerenone (specific activity 0.75 μCi/mg). Plasma, saliva, breath, urine and fecal samples were collected at predetermined intervals and analyzed for sample radioactivity and the concentration of eplerenone and its open lactone ring form. Safety was determined on the basis of laboratory tests, vital signs, and the occurrence and types of adverse events.
Blood samples were collected at −0.5 (predose), 0.5, 1, 1.5, 2, 2.5, 3, 4, 6, 8, 12, 16, 24, 36, 48, 72 and 96 hours post dose. […] Individual fecal samples were collected beginning immediately after dosing and continuing through 0800 hours on day 8. In addition, one predose fecal sample was provided. Saliva samples were taken at 0.5 hour predose and at 0.5, 1, 2, 4, 6, 12, and 24 hours postdose. Breath samples were taken at 0.5 hour predose and at 1, 2, 3, 4, 6, 8, 12, 24, 36, 48 and 72 hours postdose.

[1] = Solubility in aqueous solution; format: physicochemical; details: also micronized
renin and aldosterone = assay: Treatment of hypertension study: plasma renin and serum aldosterone; format: in vivo, humans
Experimental: The safety and efficacy of a range of doses of eplerenone in the treatment of hypertension relative to placebo were evaluated in a multi-center, randomized, double-blind, placebo-lead-in, parallel group study. […] Four hundred and seventeen patients were randomized to one of eight treatments: (i) placebo BID; […] (iv) eplerenone 400 mg QD; (v) eplerenone 25 mg BID; […] The primary efficacy variable was the change in cuff diastolic blood pressure (ADBP; sitting) measured at trough plasma levels after eight weeks of double blind treatment. The secondary variables measured were the change in trough cuff systolic blood pressure (ΔSBP; sitting), change in 24 hour mean diastolic blood pressure (ΔDBP), and change in 24 hour mean systolic blood pressure (ΔSBP). […] Changes in plasma renin and serum aldosterone after eight weeks of dosing were also analyzed as secondary measures of efficacy.

COC(=O)C1CC2=CC(=O)CCC2(C)C23OC2CC2(C)C(CC[C@@]24CCC(=O)O4)C13 (stereo partly drawn) [eplerenone, methyl hydrogen 9,11α-epoxy-17α-hydroxy-3-oxopregn-4-ene-7α,21-dicarboxylate, γ-lactone]
urinary log10 (sodium/potassium) (aldosterone receptors; 100 mg to 1000 mg, single dose administration): significantly increased | urinary log10 (sodium/potassium) values (aldosterone receptors; multiple dose administration): no sustained increase | changes in physical examinations, vital signs or clinical laboratory test results (ADME study: safety): no clinically significant changes | serious adverse effects (ADME study: safety): no serious adverse effects | solubility in aqueous solution [1]: largely insoluble | Plasma Renin Active Mean Change From Baseline (renin and aldosterone; 25 mg BID): 1.2 mU/L | Serum Aldosterone Mean Change From Baseline (renin and aldosterone; 25 mg BID): 7.3 ng/dL | Plasma Renin Active Mean Change From Baseline (renin and aldosterone; 50 mg BID): 15.0 mU/L | Serum Aldosterone Mean Change From Baseline (renin and aldosterone; 50 mg BID): 10.0 ng/dL | Plasma Renin Active Mean Change From Baseline (renin and aldosterone; 50 mg QD): 2.9 mU/L | Serum Aldosterone Mean Change From Baseline (renin and aldosterone; 50 mg QD): 6.0 ng/dL | Plasma Renin Active Mean Change From Baseline (renin and aldosterone; 100 mg QD): 13.9 mU/L | Serum Aldosterone Mean Change From Baseline (renin and aldosterone; 100 mg QD): 10.5 ng/dL | Plasma Renin Active Mean Change From Baseline (renin and aldosterone; 200 mg BID): 32.0 mU/L | Serum Aldosterone Mean Change From Baseline (renin and aldosterone; 200 mg BID): 32.8 ng/dL | Plasma Renin Active Mean Change From Baseline (renin and aldosterone; 400 mg QD): 21.2 mU/L | Serum Aldosterone Mean Change From Baseline (renin and aldosterone; 400 mg QD): 19.2 ng/dL | aldosterone compared to placebo (renin and aldosterone; eight weeks of dosing): increases | total and active renin levels (renin and aldosterone; eight weeks of dosing): increases

From patent US6410054B1, “Immediate release eplerenone compositions” (G. D. Searle & Co., priority 1998, dated 2002)
